Tests used:
DNA fragmentation = DNA fragmentation in liver and kidney; type: in vivo, Zucker Fatty Rats; settings: Experiment 2; for DNA Fragmentation, Kidney / DNA Fragmentation, Liver: percentage of total DNA in the supernatant fraction
Description: Frozen liver and kidney samples were homogenized in lysis buffer (5 mM Tris-HCl, 20 mM EDTA, 0.5% Triton X-100, pH 8.0). Homogenates were centrifuged at 27,000 g for 20 min to separate intact chromatin in the pellet from fragmented DNA in the supernatant fraction. Pellets were re-suspended in 0.5 M perchloric acid and 5.5 M perchloric acid was added to supernatant samples to reach a concentration of 0.5 M. Samples were heated at 90° C. for 15 min and centrifuged at 1,500 g for 10 min to remove protein. Resulting supernatants were reacted with diphenylamine for 16-20 h at room temperature. Absorbance was measured at 600 nm. DNA fragmentation in control samples was expressed as percentage of total DNA appearing in the supernatant fraction. Treatment effects are reported as percent of control fragmentation.

IL-6 = assay: Cytokine assay (ELISA), IL-6; type: in vivo, Zucker Fatty Rats; settings: Experiment 2
Description: (§1) Various cytokines were measured by ELISA methodology using kits from the following sources: rat MCP-1—Assay Designs Inc., Ann Arbor, Mich.; rat adiponectin—ALPCO Diagnostics, Salem, N.H.; TNF-a, ALPCO Diagnostics, Salem, N.H.; RAT IL-1B—Assay Designs Inc, Ann Arbor, Mich.; RAT IL-6—ALPCO Diagnostics, Salem, N.H.

Organ weights = type: in vivo, Zucker Fatty Rats; settings: Experiment 2, after sacrifice, in g (unit assumed)
Description: Organ weights were measured immediately after sacrifice of the rats.

[1] = system: Thiobarbituric acid-reactive substances (TBARS); assay: Lipid peroxidation (TBARS) in hepatic and kidney homogenates; type: in vivo, Zucker Fatty Rats; settings: Experiment 2
Description: Thiobarbituric acid-reactive substances (TBARS) as an index of lipid peroxidation were determined on hepatic and kidney homogenates from control and treated and malondialdehyde (MDA) was used as the standard.

Zucker Fatty Rats (ZFR) [2] = assay: Survival after accidental heat stress; type: in vivo; settings: Experiment 1; for survival after heat stress (survivors/group): day 42, 86-89° F. for 5-6 hours
Description: For two experiments, a total of 96 Zucker Fatty Rats (ZFR) (Charles River, Wilmington, Mass.) were used: 48 in each experiment were divided into four groups of 12 rats. Initial body weights ranged between 434 and 624 g in the first experiment and between 388 and 520 g in the second. All rats consumed a regular rat diet in crushed form (Purina Rat Chow, Ralston Purina, St. Louis, Mo.). Sucrose was added to the pulverized regular rat chow (30%, w/w). The four groups comprised a control eating the described diet and three test groups eating the same diet but with the addition of captopril or astaxanthin (two different doses). […] The amount of astaxanthin added was based on 2% (w/w) content of astaxanthin to powder. The first study continued for 57 days while the second continued for 75 days.
On the 42nd day, the temperature of rodent quarters rose from 72° F. to the range of 86-89° F. It was estimated that the rats were exposed to this elevated temperature for 5-6 hours. […] In contrast all ZFR in the Hi Asta group survived (11/11).
On a hot summer day, the air conditioning system in the animal quarters ceased functioning. The internal temperature of the animal quarters rose to a Fahrenheit range in the high 80's. Due to this heat stress, several ZFR that had already undergone almost six weeks of study expired. […] This can be attributed to poor stress handling of ZFR.

Zucker Fatty Rats (ZFR) [3] = assay: Insulin Challenge Testing (ICT); type: in vivo; settings: Experiment 1, survivors after heat stress
Description: Testing was commenced after 17-19 hours of food deprivation. For ICT, 0.6 unit of regular insulin/kg BW (Eli Lilly Co., Indianapolis, Ind.) was administered, and blood for glucose determination was obtained from the tail vein at 7.5 min after injection. Glucose was estimated using commercial glucose strips (Lifescan, One Touch Ultra, […], Calif.).

TNF-α = assay: Cytokine assay (ELISA), TNF-α; type: in vivo, Zucker Fatty Rats; settings: Experiment 2
Description: as §1

Blood chemistries = type: in vivo, Zucker Fatty Rats; settings: Experiment 2; for ALP (alkaline phosphatase) / ALT (alanine aminotransferase) / AST (aspartate aminotransferase) / BUN / CO2 / Calcium / Chloride / Cholesterol / Creatinine / Glucose / Potassium / Sodium / Triglycerides: blood at end of study
From the text: Blood for chemical analysis was obtained at the end of the study following removal of food four hours earlier. Blood chemistry values were obtained via dry chemistry procedures using a Johnson and Johnson (Langhorne, Pa.) Vitros® 250 instrument.

Zucker Fatty Rats (ZFR) [4] = assay: Intraperitoneal Glucose Tolerance Test (ipGTT); type: in vivo; settings: Experiment 2; for insulin concentration one hour after the glucose challenge: glucose 2.5 g/kg i.p.; for Baseline insulin concentration / average baseline glucose level: ipGTT baseline
Description: During the ipGTT, glucose (2.5 g/kg BW) was injected intraperitoneally (i.p.) to challenge the tolerance to glucose. Drops of blood were obtained from the tail at 0, 30, 60, 120, 180 and 240 minutes post injection. Glucose was estimated using commercial glucose strips (Lifescan, One Touch Ultra, […], Calif.).

IL-1B = assay: Cytokine assay (ELISA), IL-1B; type: in vivo, Zucker Fatty Rats; settings: Experiment 2
Description: as §1

[5] = Hi Asta, astaxanthin 25 mg/kg in feed
[6] = Lo Asta, astaxanthin 5 mg/kg in feed

Compound: CC1=C(/C=C/C(C)=C/C=C/C(C)=C/C=C/C=C(C)/C=C/C=C(C)/C=C/C2=C(C)C(=O)[C@@H](O)CC2(C)C)C(C)(C)C[C@H](O)C1=O [Asta, astaxanthin]
- DNA Fragmentation (% Control), Kidney (DNA fragmentation; [5]): 100 % Control
- DNA Fragmentation (% Control), Liver (DNA fragmentation; [5]): 103 % Control
- DNA Fragmentation (% Control), Kidney (DNA fragmentation; [6]): 102 % Control
- DNA Fragmentation (% Control), Liver (DNA fragmentation; [6]): 108 % Control
- DNA Fragmentation, Kidney (DNA fragmentation; [5]): 4.3 ± 0.48
- DNA Fragmentation, Liver (DNA fragmentation; [5]): 4.1 ± 0.33
- DNA Fragmentation, Kidney (DNA fragmentation; [6]): 4.4 ± 0.37
- DNA Fragmentation, Liver (DNA fragmentation; [6]): 4.3 ± 0.38
- IL-6 (IL-6; [5]): 433.0 ± 9.3
- IL-6 (IL-6; [6]): 470.0 ± 21^
- Organ weight, Epidydimal fat pad (Organ weights; [5]): 21.7 ± 12
- Organ weight, Kidney (left) (Organ weights; [5]): 2.4 ± 0.08
- Organ weight, Kidney (right) (Organ weights; [5]): 2.5 ± 0.10
- Organ weight, Liver (Organ weights; [5]): 43.3 ± 2.3
- Organ weight, Epidydimal fat pad (Organ weights; [6]): 19.3 ± 0.9
- Organ weight, Kidney (left) (Organ weights; [6]): 2.5 ± 0.16
- Organ weight, Kidney (right) (Organ weights; [6]): 2.5 ± 0.34
- Organ weight, Liver (Organ weights; [6]): 40.4 ± 2.4
- Lipid peroxidation, Kidney [1, 5]: 3.5 ± 0.30 nmoles MDA/mg protein
- Lipid peroxidation, Liver [1, 5]: 3.9 ± 0.46 nmoles MDA/mg protein
- Lipid peroxidation, Kidney [1, 6]: 3.9 ± 0.48 nmoles MDA/mg protein
- Lipid peroxidation, Liver [1, 6]: 4.7 ± 0.53 nmoles MDA/mg protein
- survival percentage after heat stress (Zucker Fatty Rats (ZFR) [2]; [5]): 100%
- survival percentage after heat stress (Zucker Fatty Rats (ZFR) [2]; [6]): 33%
- survival after heat stress (survivors/group) (Zucker Fatty Rats (ZFR) [2]; [5]): 11/11
- survival after heat stress (survivors/group) (Zucker Fatty Rats (ZFR) [2]; [6]): 4/12
- Insulin: decrease in circulating glucose after insulin challenge (ICT) (Zucker Fatty Rats (ZFR) [3]; [5]): -7.6 ± 2.5 mg/dL
- Insulin: decrease in circulating glucose after insulin challenge (ICT) (Zucker Fatty Rats (ZFR) [3]; [6]): -8.5 ± 4.1 mg/dL
- TNF-α (TNF-α; [5]): 294.0 ± 13.0
- TNF-α (TNF-α; [6]): 349.0 ± 11.9
- renal damage (elevations in BUN and creatinine concentrations) (Blood chemistries; [5]): none of the ZFR in the Hi Asta group showed any evidence of elevations
- renal damage (increased circulating urea, creatinine and potassium) (Blood chemistries; [6]): evidence of renal damage occurred in three ZFR
- ALP (alkaline phosphatase) (Blood chemistries; [5]): 331 ± 27.3 U/L
- ALT (alanine aminotransferase) (Blood chemistries; [5]): 86.2 ± 13.7 units
- AST (aspartate aminotransferase) (Blood chemistries; [5]): 106.1 ± 21.0 units
- BUN (Blood chemistries; [5]): 15.0 ± 0.5 mg/dL
- CO2 (Blood chemistries; [5]): 23.5 ± 0.5 mM
- Calcium (Blood chemistries; [5]): 11.4 ± 0.1 mg/dL
- Chloride (Blood chemistries; [5]): 98.9 ± 0.8 mM
- Cholesterol (Blood chemistries; [5]): 314.0 ± 13.6 mg/dL
- Creatinine (Blood chemistries; [5]): 0.5 ± 0.01 mg/dL
- Glucose (Blood chemistries; [5]): 327.0 ± 14.2 mg/dL
- Potassium (Blood chemistries; [5]): 6 ± 0.13 mM
- Sodium (Blood chemistries; [5]): 142 ± 0.8 mM
- Triglycerides (Blood chemistries; [5]): 1172.0 ± 51.2 mg/dL
- ALP (alkaline phosphatase) (Blood chemistries; [6]): 364 ± 33.4 U/L
- ALT (alanine aminotransferase) (Blood chemistries; [6]): 70.9 ± 12.4 units
- AST (aspartate aminotransferase) (Blood chemistries; [6]): 105.8 ± 20.9 units
- BUN (Blood chemistries; [6]): 25.3 ± 5.4 mg/dL
- CO2 (Blood chemistries; [6]): 22.5 ± 1 mM
- Calcium (Blood chemistries; [6]): 11.3 ± 0.2 mg/dL
- Chloride (Blood chemistries; [6]): 98.4 ± 0.7 mM
- Cholesterol (Blood chemistries; [6]): 308.0 ± 27.8 mg/dL
- Creatinine (Blood chemistries; [6]): 0.6 ± 0.90 mg/dL
- Glucose (Blood chemistries; [6]): 317.0 ± 30.6 mg/dL
- Potassium (Blood chemistries; [6]): 6.5 ± 0.04 mM
- Sodium (Blood chemistries; [6]): 141 ± 0.7 mM
- Triglycerides (Blood chemistries; [6]): 1167.0 ± 71.6 mg/dL
- insulin concentration one hour after the glucose challenge (Zucker Fatty Rats (ZFR) [4]; [5]): 2.23 ng/mL
- insulin concentration one hour after the glucose challenge (Zucker Fatty Rats (ZFR) [4]; [6]): 2.15 ng/mL
- Baseline insulin concentration (Zucker Fatty Rats (ZFR) [4]; [5]): 0.90 ng/mL
- average baseline glucose level (Zucker Fatty Rats (ZFR) [4]; [5]): 406 mg/dL
- Baseline insulin concentration (Zucker Fatty Rats (ZFR) [4]; [6]): 0.80 ng/mL
- average baseline glucose level (Zucker Fatty Rats (ZFR) [4]; [6]): 346 mg/dL
- area under the curve after glucose challenge vs control (Zucker Fatty Rats (ZFR) [4]; six rats per group, Hi Asta, astaxanthin 25 mg/kg in feed): statistically significant lower average reading than control
- IL-1β (IL-1B; [5]): 440.0 ± 25.5
- IL-1β (IL-1B; [6]): 490.0 ± 21.7

From patent US8877819B2, “Methods for treating heat stress and related compositions” (Georgetown University, priority 2008, dated 2014)
